# Reference: patent publication US20250313596A1, “BACILLUS SUBTILIS STRAINS PRODUCING NEW MYCOSUBTILIN ISOFORMS” (Universite de Lille, priority 2022, published 2025)
# Like-named read-outs stand apart in the source and are kept apart here. Where a SMILES comes first, the peptide text is derived from it. [ ]: non-standard residue; d: D form.
# Tests used:
# B. cinerea [1] = type: cell-based; conditions: for ECS0 (μg/ml) B. cinerea: concentration that reduces fungal strain growth by 50%; for EC95 (μg/ml) B. cinerea: concentration that reduces pathogen growth by 95%
# Procedure: (§1) Three different fungal strains were tested for their antifungal activity: B. cinerea, Aspergillus sp. and Z. tritici. In addition to the two conventional isoforms, three new isoforms are being tested for their antifungal properties. A range of concentrations (μg a.i./ml or ppm) 0; 0.0037; 0.0146; 0.0586; 0.2344; 0.9375; 3.75 and 15 is used to determine the activity coefficient. Based on this concentration range, the EC50 (concentration that reduces fungal strain growth by 50%) and EC95 (concentration that reduces pathogen growth by 95%) were calculated and presented as disclosed in Table 5.
# 4.1 Antifungal Activity on B. cinerea
# Z. tritici = type: cell-based; conditions: for ECS0 (μg/ml) Z. tritici: concentration that reduces fungal strain growth by 50%; for EC95 (μg/ml) Z. tritici: concentration that reduces pathogen growth by 95%
# Procedure: as §1
# 4.3 Antifungal Activity on Z. Tritici
# Vero cells = type: cell-based
# Procedure: The cytotoxicity test is performed using Vero cells and the CyQUANT™ XTT Cell Viability assay kit (supplied by Invitrogen™).
# Samples are dissolved in 100% DMSO at a concentration of 20-50 g/L. The final concentration in DMEM medium is 40 μg/L. Cells were prepared in flasks containing DMEM cell culture medium with 10% FBS as follows:
# A 175 ml flask containing 20-30 million cells with 25 ml medium and 2 ml trypsin was added. Then the medium was discarded as the cells were attached to the flask wall. Rinse twice with PBS, then trypsin was added to detach cells from the flask wall. The mixture was incubated for 5 min at 37° C. To inactivate trypsin, 6 ml […] was added to the medium (twice the volume of the original trypsin in the medium).
# In a 50 ml flask, the medium was centrifuged for 5 min at 300 g. […]. The medium was discarded, and the cells were resuspended. 100 μL of cells were added to 100 μL of dye, then 12 μL was used for counting. The percentage of viability was compared with a control of cells without any treatment.
# The test is performed in a 96-well plate. A range of concentrations (mg/l) 0.14; 0.28; 0.56; 1.16; 2.25; 4.5 is used to determine the toxicity limit of each isoform.
# Aspergillus sp. = type: cell-based
# Procedure: as §1
# 4.2 Antifungal Activity on Aspergillus sp.
# rats = conditions: 28-day treatment and 14 days recovery period; cited from earlier work
# A. niger = conditions: Guez et al., 2022; cited from earlier work
# B. cinerea [2] = conditions: Béchet et al., 2013; cited from earlier work
molecule,measurement,setting,value
CCCCCCCCCCCCCC1CC(=O)N[C@@H](CCC(N)=O)C(=O)N[C@H](Cc2ccc(O)cc2)C(=O)N[C@H](CC(N)=O)C(=O)N[C@@H](CCC(N)=O)C(=O)N2CCC[C@H]2C(=O)N[C@H](CO)C(=O)N[C@@H](CC(N)=O)C(=O)N1 (some centres unmarked) [Gln1-C16],EC50 value,B. cinerea [1],1.048 ppm
same,EC50 value,Z. tritici,1.906 ppm
same,EC50 (cell viability),Vero cells,4.5 µg/mL
same,"toxicity compared with the conventional isoform, in words",Vero cells,significantly less toxic than the conventional A-C16 isoform
CCCCCCCCCCCCCC[C@@H]1CC(=O)N[C@@H](CCC(N)=O)C(=O)N[C@H](Cc2ccc(O)cc2)C(=O)N[C@H](CC(N)=O)C(=O)N[C@@H](CCC(N)=O)C(=O)N2CCC[C@H]2C(=O)N[C@H](CO)C(=O)N[C@@H](CC(N)=O)C(=O)N1 [Gln1-C17],EC50 value,Aspergillus sp.,1.019 ppm
same,EC95 value,Aspergillus sp.; Aspergillus sp.,1.290 ppm
same,antifungal efficacy in words,Aspergillus sp.; Aspergillus sp.,effective against this fungal strain
same,antifungal efficacy in words,B. cinerea [1]; B. cinerea,"effective against this fungal strain, but at higher concentrations"
same,ECS0 (μg/ml) B. cinerea,B. cinerea [1],0.920 µg/mL
same,EC95 (μg/ml) B. cinerea,B. cinerea [1],1.117 µg/mL
same,antifungal efficacy in words,Z. tritici; Z. tritici,"effective against this fungal strain, but at a higher concentration"
same,ECS0 (μg/ml) Z. tritici,Z. tritici,2.156 µg/mL
same,EC95 (μg/ml) Z. tritici,Z. tritici,17.040 µg/mL
same,EC50 (cell viability),Vero cells,around 3.4 mg/L
CCCCCCCCCCCCCC1CC(=O)N[C@@H](CC(N)=O)C(=O)N[C@H](Cc2ccc(O)cc2)C(=O)N[C@H](CCC(N)=O)C(=O)N[C@@H](CCC(N)=O)C(=O)N2CCC[C@H]2C(=O)N[C@H](CO)C(=O)N[C@@H](CC(N)=O)C(=O)N1 (some centres unmarked) [Gln3-C16],EC50 (cell viability),Vero cells,over 4.5 mg/L
same,"toxicity compared with the conventional isoform, in words",Vero cells,significantly less toxic than the conventional A-C16 isoform
"CCCCCCCCCCCCCC[C@@H]1CC(=O)N[C@@H](CC(N)=O)C(=O)N[C@H](Cc2ccc(O)cc2)C(=O)N[C@H](CCC(N)=O)C(=O)N[C@@H](CCC(N)=O)C(=O)N2CCC[C@H]2C(=O)N[C@H](CO)C(=O)N[C@@H](CC(N)=O)C(=O)N1 [Gln3-C17] (HELM PEPTIDE1{N.[dY].[dQ].Q.P.[dS].N.[CCCCCCCCCCCCCC[C@H](CC(=O)[*:2])N[*:1]]}$PEPTIDE1,PEPTIDE1,1:R1-8:R2$$$V2.0)",ECS0 (μg/ml) Aspergillus sp.,Aspergillus sp.; concentration that reduces fungal strain growth by 50%,6.335 µg/mL
same,EC95 (μg/ml) Aspergillus sp.,Aspergillus sp.; concentration that reduces pathogen growth by 95%,13.659 µg/mL
same,ECS0 (μg/ml) B. cinerea,B. cinerea [1],1.646 µg/mL
same,EC95 (μg/ml) B. cinerea,B. cinerea [1],3.437 µg/mL
same,ECS0 (μg/ml) Z. tritici,Z. tritici,4.314 µg/mL
same,EC95 (μg/ml) Z. tritici,Z. tritici,16.078 µg/mL
same,EC50 (cell viability),Vero cells,over 4.5 mg/L
Iturin A,"toxic effects on organs, in words",rats,"no toxic effects on the lungs, heart and kidneys"
"conventional C17 isoform of mycosubtilin, ring Asn-Tyr-Asn-Gln-Pro-Ser-Asn (peaks 5, 6, 7; FIG. 1) (cyclo(N[dY][dN]QP[dS]N); not fully specified (N-terminus)) [A-C17]",EC50 value,Aspergillus sp.; Aspergillus sp.,1.191 ppm
same,EC95 value,Aspergillus sp.; Aspergillus sp.,1.905 ppm
same,higher concentration of the former required to have the same activity as the latter,"Aspergillus sp.; EC50, A-C17 versus Gln1-C17",14%
same,higher concentration of the former required to have the same activity as the latter,"Aspergillus sp.; EC95, A-C17 versus Gln1-C17",32%
same,ECS0 (μg/ml) B. cinerea,B. cinerea [1],0.467 µg/mL
same,EC95 (μg/ml) B. cinerea,B. cinerea [1],0.677 µg/mL
same,ECS0 (μg/ml) Z. tritici,Z. tritici,0.943 µg/mL
same,EC95 (μg/ml) Z. tritici,Z. tritici,18.010 µg/mL
same,EC50 (cell viability),"Vero cells; Vero cells, XTT, range 0.14-4.5 mg/l, determined from FIG. 7",around 1.7 mg/L
n-C16,MIC,A. niger,16 µM
same,MIC,B. cinerea [2],16 µM
